Measured values published in patent US20260224758A1, “ALPHA-SYNUCLEIN BINDERS AND METHODS OF USE” (Merck Sharp & Dohme LLC, priority 2023, published 2026).

Key:
[1] = molecular target: T1, triton-extracted alpha-synuclein from PD Tissue (Homo sapiens, UniProt P37840); assay: Alpha-synuclein tissue homogenate binding assay (Assay 1), displacement of [^3H]-1000; conditions: for Selectivity ratio (Assay 2/Assay 1): Aβ Tissue Ki / α-synuclein Tissue Ki; for Ki: insoluble fraction of PD brain homogenate, [^3H]-1000 3.0 nM, Kd 0.90 nM, read-out: α-synuclein Tissue Ki (Assay 1)
T1 construct: tissue Analytic Biological Services Inc; host or cells: human PD temporal cortex grey matter, Triton X-100 insoluble pellet

[2] = molecular target: aggregated beta amyloid in AD tissue (Homo sapiens, UniProt P05067); assay: Competitive radioligand binding to pathological aggregated beta amyloid in AD tissue (Assay 2), displacement of [^3H]-105; conditions: Aβ-rich AD frontal cortex homogenate, [^3H]-105, Kd 11.0 nM
Description: Frozen human brain samples of Alzheimer's disease (AD) were purchased from Analytic Biological Services Inc. The samples were post-mortem tissue from donors with clinical diagnosis of AD and much of the white matter was dissected out of the frontal cortex in order to enrich the tissue preparations for gray matter. Brain homogenates of gray matter enriched frontal cortex were prepared by homogenizing the tissue in ice cold Phosphate Buffered Saline (PBS), pH 7.4 at 80 mg wet weight tissue per 1 ml for 45 seconds at 4° C., on setting 16 of Polytron. The homogenate was further diluted with ice cold PBS to 30 mg wet weight tissue per 1 ml and homogenized for an additional minute as described above. Homogenates were aliquoted in 5 ml/tube and stored at −70° C. until use.
Radioligand [^3H]-105, prepared as described in ACS Med. Chem. Lett., Vol. 2, pages 498-502, was used in this assay.
For Assay 2 unlabeled test compounds were dissolved in DMSO at 10 mM. Dilutions of tests compounds to various concentrations were made in 100% DMSO at 1000× final assay concentration and 0.225 μl aliquots were dispensed into assay plates. Brain homogenates were diluted to 0.5 mg/ml from original 30 mg/ml volume in Assay Buffer, and 200 μl were added to the assay plate for a final concentration of 100 ug wet weight/assay well. [^3H]-105 was prepared at 10× final concentration in Assay Buffer plus 20% DMSO and 25 μl was added to the assay plate for final assay concentration of 3.0 nM. The plates were incubated at 37° C. for 90 minutes. Unbound and bound ligand were separated by filtration of bound onto GF/B filter plates (pre-treated for 30 min with 0.1% PEI) using a Packard Filtermate and washing away unbound with 2.5 mil ice cold 5 mM Tris at pH 7.4. Filter plates were dried for 1 hr at 57° C. and 50 μl Microscint was added to each well of the plate. The plates were counted for ^3H cpm for 1 min per well using PerkinElmer TopCount.

[3] = molecular target: human Parkinson's Disease tissue homogenates (Homo sapiens, UniProt P37840); assay: Hot saturation binding of [^3H]-2 in human PD cerebral cortex homogenates; conditions: PD Cortex (n = 5)
Description: (§1) To assess presence of alpha synucleinopathy (Lewy body, LB and Lewy neurites, LN) in the tested human brain samples, the adjacent human PD brain slices were used for Autoradiography (ARG) and Immunihistochemistry (1HC) studies. ARG was done using radio-labelled compounds which bind to LB and LN of PD brain sections. 1HC was performed with antibodies for LB & LN (LB509), Aβ (6E10) and p-tau (AT8). Tissue homogenate binding was performed using human PD brain homogenates of cerebral cortex. Human brains from donor without neurological disorder were used as control in the same study.
The frozen human brain samples of Parkinson's disease (PD) were provided by Banner Sun Health Institute (USA) and Sydney Brain Bank (Australia) through collaboration with Michael J Fox Foundation (MJFF). […]
[^3H]-2 was synthesized by Radio Compound Labelling Synthesis Group at Merck. […] Total binding was defined in the absence of competing compound, and non-displaceable binding was determined in the presence of 1 μM unlabeled self-block. […]
Incubation was carried out at 37° C. for 120 minutes, and then the assay samples were filtered onto GF/C filters using Skatron 12 well harvester, washing on setting 5-5-5 (~3×2 ml) ice cold buffer (Tris, pH 7.5). […] Add liquid scintillation fluid (2 mL Ultima Gold) into each vial, allow to soak into filters for 4 hours and counted in on Perkin Elmer Tri-Carb 2900TR for 1 minute. […]

[4] = molecular target: T2, alpha-synucleinopathy of PD brain (Homo sapiens, UniProt P37840); assay: In vitro autoradiography of [^3H]-2 on PD brain sections with IHC comparison; assay type: binding; conditions: PD brain amygdala section, 3 nM radioligand
T2 construct: They are post-mortem tissue from donors with clinical diagnosis of PD or non-PD; tissue Banner Sun Health Institute; Sydney Brain Bank; Analytic Biological Services Inc; Discovery Life Science; host or cells: human PD cerebral cortex homogenates (A4); human PD amygdala cryosections (A5)
Description: as §1
The frozen human brain samples of Parkinson's disease (PD) were provided by Banner Sun Health Institute (USA) and Sydney Brain Bank (Australia) through collaboration with Michael J Fox Foundation (MJFF). Additional PD and non-PD brain samples were purchased from vendors (Analytic Biological Services Inc., ABS, and Discovery Life Science, DLS). […] Total binding of radioligand in a brain slice was defined in the absence of competitor, and non-displaceable binding (NDB) was determined in the presence of competitor (1.0 μM unlabeled selfblock). […] After three weeks exposure, the plates were scanned in Amersham Typhoon Imager, and the scanned images were analyzed using MCID 7.1 software. [^3H]-microscales (Amersham Biosciences, GE), were used for quantification of radioligand binding density. […]

[5] = [^11C]-2 PET imaging in rhesus monkey; assay type: in vivo; conditions: IV, averaged over 30-90 minutes post injection
Description: A fasted rhesus monkey (7-11 kg) is anesthetized with ketamine I.M. (15 mpk) and the monkey is placed in the PET camera bed. An I.V, catheter is inserted into the right saphenous vein. For arterial sampling, the right femoral area is aseptically prepared and an arterial catheter is placed and fixed with sutures.
Subsequent anesthesia is maintained with Propofol. Induction dose is 5 mg/kg I.V., followed by an infusion at 0.4-0.6 mg/kg/min for the duration of the scanning procedure. The animal is intubated and positioned inside the camera gantry supine, head first. Animal is maintained on ventilated medical grade air:oxygen gas mixture at approximately 23 respirations per minute for the duration of the study. Ventilation I:E ratio, volume and rate of respiration is adjusted to maintain CO2 levels about 40 mmHg and SpO2 levels 95 to 100%. A temperature probe, pulse oximeter, non-invasive blood pressure cuff, and end tidal CO2 monitor are connected. […]
Whole blood samples are collected via arterial catheter into Heparin tubes for determination of radioactivity in whole blood and plasma. Samples are centrifuged and 20 μl whole blood and plasma are counted 20, 40, 80, 100, 120, and 150 seconds post PET ligand injection. Samples of blood (0.8 ml) are taken for metabolite correction and determination of radioactivity in plasma and whole blood at 3, 5, 15, 30, 60, and 90 minutes. […]

Sequence of aggregated beta amyloid in AD tissue (P05067 672-711 limits assumed): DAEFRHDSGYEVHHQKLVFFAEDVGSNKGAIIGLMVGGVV

Compound: COC[C@H]1CN(c2ncc(C#Cc3ccc(-c4cnn(CCOCCF)c4)nc3)cn2)CCN1c1ncncn1 [Example 77, (R)-2-(4-(5-((6-(1-(2-(2-fluoroethoxy)ethyl)-1H-pyrazol-4-yl)pyridin-3-yl)ethynyl)pyrimidin-2-yl)-2-(methoxymethyl)piperazin-1-yl)-1,3,5-triazine]
- Selectivity ratio (Assay 2/Assay 1) [1]: 705
- Ki [1]: 1.7 nM
- Ki [2]: ≥ 1200 nM

Compound: Cn1cc(-c2ncc(C#Cc3cnc(N4CCN(c5ncncn5)[C@@H](COCCOCCF)C4)nc3)cn2)cn1 [Example 78, (R)-2-(2-((2-(2-fluoroethoxy)ethoxy)methyl)-4-(5-((2-(1-methyl-1H-pyrazol-4-yl)pyrimidin-5-yl)ethynyl)pyrimidin-2-yl)piperazin-1-yl)-1,3,5-triazine]
- Selectivity ratio (Assay 2/Assay 1) [1]: 753
- Ki [1]: 1.59 nM
- Ki [2]: ≥ 1200 nM

Compound: COCCOC[C@H]1CN(c2ncc(C#Cc3ccc(-n4ccnc4)nc3)c(F)n2)CCN1c1ncncn1 [Example 80, (R)-2-(4-(5-((6-(1H-imidazol-1-yl)pyridin-3-yl)ethynyl)-4-fluoropyrimidin-2-yl)-2-((2-methoxyethoxy)methyl)piperazin-1-yl)-1,3,5-triazine]
- Selectivity ratio (Assay 2/Assay 1) [1]: 794
- Ki [1]: 1.51 nM
- Ki [2]: ≥ 1200 nM

Compound: Cn1cc(-c2ncc(C#Cc3cnc(N4CCN(c5ncccn5)[C@@H](COCCOCCOCCF)C4)nc3)cn2)cn1 [Example 82, (R)-2-(3-((2-(2-(2-fluoroethoxy)ethoxy)ethoxy)methyl)-4-(pyrimidin-2-yl)piperazin-1-yl)-5-((2-(1-methyl-1H-pyrazol-4-yl)pyrimidin-5-yl)ethynyl)pyrimidine]
- Selectivity ratio (Assay 2/Assay 1) [1]: 840
- Ki [1]: 1.43 nM
- Ki [2]: ≥ 1200 nM

Compound: [3H]C([3H])([3H])OC[C@H]1CN(c2ncc(C=Cc3ccc(-n4ccnc4)nc3)cn2)CCN1c1ncccn1 [[^3H]-2, [^3H]-(R,E)-5-(2-(6-(1H-imidazol-1-yl)pyridin-3-yl)vinyl)-2-(3-(methoxymethyl)-4-(pyrimidin-2-yl)piperazin-1-yl)pyrimidine]
- Bmax [3]: 17.0 ± 5.2 nM
- autoradiographic binding versus LB509 and AT8 immunoreactivity [4]: specific binding

Compound: [11CH3]OC[C@H]1CN(c2ncc(/C=C/c3ccc(-n4ccnc4)nc3)cn2)CCN1c1ncccn1 [[^11C]-2]
- distribution in monkey brain (PET image) [5]: suitable distribution
